According to PMC10763615, “Identification and engineering of potent cyclic peptides with selective or promiscuous binding through biochemical profiling and bioinformatic data analysis” (RSC Chemical Biology, 2023):
Positions of bridges follow the written chain, without caps; N, C: chain ends. Residues, ends and D or L forms follow the SMILES beside them.

What was measured:
Assay type in all cases: binding
FGF-R4 ECD = target: T1, FGF-R4 ECD (Homo sapiens, UniProt P22455); test: single concentration BLI of crude peptides; conditions: crude T18 selection 1 (1:1:1) peptides, single concentration BLI (Table S4); read-out: KD (4)
T1 construct: DNA constructs for the extracellular domain (ECD) of human FGF-; HPC4 (C); made in house; host or cells: HEK 293-6E
T1 sequence (P22455 22-369 limits assumed): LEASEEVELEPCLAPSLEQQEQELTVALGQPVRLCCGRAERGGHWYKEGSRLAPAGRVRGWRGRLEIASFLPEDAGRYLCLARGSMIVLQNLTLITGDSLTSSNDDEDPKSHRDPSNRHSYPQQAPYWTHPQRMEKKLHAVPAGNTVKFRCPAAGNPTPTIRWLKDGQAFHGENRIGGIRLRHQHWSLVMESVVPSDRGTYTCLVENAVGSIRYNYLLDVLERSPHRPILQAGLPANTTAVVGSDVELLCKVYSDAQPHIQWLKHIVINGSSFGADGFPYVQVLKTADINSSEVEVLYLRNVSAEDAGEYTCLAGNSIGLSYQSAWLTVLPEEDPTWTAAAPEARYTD
Outline: (§1)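 Streptavidin biosensors carrying biotinylated FGF receptor ECD were immersed in peptide (~1 μM for crude single-point runs, a concentration series for purified peptides) and then in peptide-free buffer. KD was obtained by fitting the BLI association and dissociation curves.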

FGF-R1C ECD = target: T2, FGF-R1C ECD (Homo sapiens, UniProt P11362); test: biochemical; set-up: DNA constructs for the extracellular domain (ECD) of human FGF-; HPC4 (C); made in house; host or cells: HEK 293-6E
T2 sequence (P11362 22-376 limits assumed): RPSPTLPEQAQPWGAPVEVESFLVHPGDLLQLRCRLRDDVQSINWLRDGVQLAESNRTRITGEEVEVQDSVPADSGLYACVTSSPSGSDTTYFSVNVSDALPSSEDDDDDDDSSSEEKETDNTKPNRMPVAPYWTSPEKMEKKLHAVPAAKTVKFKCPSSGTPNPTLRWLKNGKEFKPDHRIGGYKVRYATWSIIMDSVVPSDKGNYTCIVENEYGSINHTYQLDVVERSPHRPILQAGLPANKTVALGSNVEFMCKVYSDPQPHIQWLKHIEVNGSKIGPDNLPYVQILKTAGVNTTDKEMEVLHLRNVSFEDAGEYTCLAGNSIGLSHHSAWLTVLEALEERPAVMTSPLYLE
Outline: as §1

FGF-R3C ECD = target: T3, FGF-R3C ECD (Homo sapiens, UniProt P22607); test: biochemical; set-up: DNA constructs for the extracellular domain (ECD) of human FGF-; HPC4 (C); made in house; host or cells: HEK 293-6E
T3 sequence (P22607 23-375 limits assumed): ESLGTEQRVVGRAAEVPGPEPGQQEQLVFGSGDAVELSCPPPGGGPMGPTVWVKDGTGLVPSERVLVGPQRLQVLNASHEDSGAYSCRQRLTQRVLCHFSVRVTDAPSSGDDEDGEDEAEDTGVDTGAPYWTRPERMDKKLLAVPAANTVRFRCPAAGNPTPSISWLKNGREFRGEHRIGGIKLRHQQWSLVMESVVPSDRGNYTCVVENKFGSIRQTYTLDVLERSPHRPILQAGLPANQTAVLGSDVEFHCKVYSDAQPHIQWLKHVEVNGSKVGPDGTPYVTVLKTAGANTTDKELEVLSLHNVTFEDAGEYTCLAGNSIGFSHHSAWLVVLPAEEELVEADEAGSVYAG
Outline: as §1

What does the source list for `CC[C@H](C)[C@@H]1NC(=O)[C@H](C)NC(=O)[C@H](Cc2ccc(O)cc2)NC(=O)[C@@H]2CCCN2C(=O)[C@@H](NC(=O)[C@H](CCSC)NC(C)=O)CSSC[C@@H](C(=O)NCC(=O)N[C@@H](CO)C(=O)NCC(=O)N[C@@H](CO)C(=O)N[C@@H](CCC(=O)O)C(=O)N[C@@H](CCC(=O)O)C(=O)NCC(=O)N[C@@H](CO)C(=O)NCC(=O)N[C@@H](CO)C(=O)N[C@@H](CC(=O)O)C(=O)N[C@@H](Cc2ccc(O)cc2)C(=O)N[C@@H](CCCCN)C(=O)N[C@@H](CC(=O)O)C(=O)N[C@@H](CC(=O)O)C(=O)N[C@@H](CC(=O)O)C(=O)N[C@@H](CC(=O)O)C(=O)N[C@@H](CCCCN)C(N)=O)NC(=O)[C@H]([C@@H](C)O)NC(=O)[C@H](CCCCN)NC(=O)[C@H](CCCNC(=N)N)NC(=O)[C@H](Cc2c[nH]c3ccccc23)NC(=O)[C@H](CCCCN)NC(=O)[C@H](Cc2ccc(O)cc2)NC(=O)[C@H](Cc2c[nH]c3ccccc23)NC(=O)[C@H](Cc2ccc(O)cc2)NC1=O` (Ac-MCPYAIYWYKWRKTCGSGSEEGSGSDYKDDDDK-NH2; disulfide 2-15)?
Kd (FGF-R4 ECD): 0.011 µM; Kd (FGF-R1C ECD): > 10 µM; Kd (FGF-R3C ECD): > 10 µM

For `CSCC[C@H](NC(C)=O)C(=O)N[C@H]1CSSC[C@@H](C(=O)NCC(=O)N[C@@H](CO)C(=O)NCC(=O)N[C@@H](CO)C(=O)N[C@@H](CC(=O)O)C(=O)N[C@@H](Cc2ccc(O)cc2)C(=O)N[C@@H](CCCCN)C(=O)N[C@@H](CC(=O)O)C(=O)N[C@@H](CC(=O)O)C(=O)N[C@@H](CC(=O)O)C(=O)N[C@@H](CC(=O)O)C(=O)N[C@@H](CCCCN)C(N)=O)NC(=O)[C@H](CC(=O)O)NC(=O)[C@H](CCCNC(=N)N)NC(=O)[C@H](Cc2c[nH]c3ccccc23)NC(=O)[C@H](CC(=O)O)NC(=O)[C@H](Cc2c[nH]cn2)NC(=O)[C@H](Cc2c[nH]c3ccccc23)NC(=O)[C@H](CC(=O)O)NC(=O)[C@H](Cc2ccc(O)cc2)NC(=O)[C@H](Cc2ccc(O)cc2)NC(=O)[C@H](CC(=O)O)NC(=O)[C@H](Cc2ccc(O)cc2)NC(=O)[C@@H]2CCCN2C1=O` (Ac-MCPYDYYDWHDWRDCGSGSDYKDDDDK-NH2; disulfide 2-15), which Kd (FGF-R4 ECD) is on record?
The Kd was 1.59 µM.

What about the Kd (FGF-R1C ECD) of the same compound?
The Kd was > 10 µM.

What about the Kd (FGF-R3C ECD) of the same compound?
The Kd was > 10 µM.

What does the source list for `CSCC[C@H](NC(C)=O)C(=O)N[C@H]1CSSC[C@@H](C(=O)NCC(=O)N[C@@H](CO)C(=O)NCC(=O)N[C@@H](CO)C(=O)N[C@@H](CC(=O)O)C(=O)N[C@@H](Cc2ccc(O)cc2)C(=O)N[C@@H](CCCCN)C(=O)N[C@@H](CC(=O)O)C(=O)N[C@@H](CC(=O)O)C(=O)N[C@@H](CC(=O)O)C(=O)N[C@@H](CC(=O)O)C(=O)N[C@@H](CCCCN)C(N)=O)NC(=O)[C@H](Cc2ccccc2)NC(=O)[C@H](C(C)C)NC(=O)[C@H](CCCNC(=N)N)NC(=O)[C@H](Cc2c[nH]c3ccccc23)NC(=O)[C@H](Cc2ccc(O)cc2)NC(=O)[C@H](CCC(N)=O)NC(=O)[C@H](C(C)C)NC(=O)[C@H](Cc2ccc(O)cc2)NC(=O)[C@H](Cc2ccc(O)cc2)NC(=O)[C@@H]2CCCN2C1=O` (Ac-MCPYYVQYWRVFCGSGSDYKDDDDK-NH2; disulfide 2-13)?
Kd (FGF-R4 ECD): 0.009 µM; Kd (FGF-R1C ECD): > 10 µM; Kd (FGF-R3C ECD): > 10 µM

For `CC[C@H](C)[C@@H]1NC(=O)[C@H](CCC(=O)O)NC(=O)[C@H](CCCNC(=N)N)NC(=O)[C@@H](NC(=O)[C@H](CCSC)NC(C)=O)CSSC[C@@H](C(=O)NCC(=O)N[C@@H](CO)C(=O)NCC(=O)N[C@@H](CO)C(=O)N[C@@H](CC(=O)O)C(=O)N[C@@H](Cc2ccc(O)cc2)C(=O)N[C@@H](CCCCN)C(=O)N[C@@H](CC(=O)O)C(=O)N[C@@H](CC(=O)O)C(=O)N[C@@H](CC(=O)O)C(=O)N[C@@H](CC(=O)O)C(=O)N[C@@H](CCCCN)C(N)=O)NC(=O)[C@H](CCC(N)=O)NC(=O)[C@H](Cc2c[nH]c3ccccc23)NC(=O)[C@H](CC(C)C)NC(=O)[C@H](CCC(N)=O)NC(=O)[C@H](Cc2c[nH]c3ccccc23)NC(=O)[C@H](Cc2ccc(O)cc2)NC(=O)[C@H](CCCNC(=N)N)NC1=O` (Ac-MCREIRYWQLWQCGSGSDYKDDDDK-NH2; disulfide 2-13), which Kd (FGF-R4 ECD) is on record?
The Kd was 0.027 µM.

And the Kd (FGF-R1C ECD)?
The Kd was > 10 µM.

And the Kd (FGF-R3C ECD)?
The Kd was > 10 µM.

What does the source list for `CSCC[C@H](NC(C)=O)C(=O)N[C@H]1CSSC[C@@H](C(=O)NCC(=O)N[C@@H](CO)C(=O)NCC(=O)N[C@@H](CO)C(=O)N[C@@H](CCC(=O)O)C(=O)N[C@@H](CCC(=O)O)C(=O)NCC(=O)N[C@@H](CO)C(=O)NCC(=O)N[C@@H](CO)C(=O)N[C@@H](CC(=O)O)C(=O)N[C@@H](Cc2ccc(O)cc2)C(=O)N[C@@H](CCCCN)C(=O)N[C@@H](CC(=O)O)C(=O)N[C@@H](CC(=O)O)C(=O)N[C@@H](CC(=O)O)C(=O)N[C@@H](CC(=O)O)C(=O)N[C@@H](CCCCN)C(N)=O)NC(=O)[C@H](CCCNC(=N)N)NC(=O)[C@H](CCC(N)=O)NC(=O)[C@H](Cc2c[nH]cn2)NC(=O)[C@H](Cc2c[nH]c3ccccc23)NC(=O)[C@H](CC(C)C)NC(=O)[C@H](CCCCN)NC(=O)[C@H](Cc2c[nH]c3ccccc23)NC(=O)[C@H](Cc2ccc(O)cc2)NC(=O)[C@H](Cc2ccccc2)NC(=O)[C@H](CC(C)C)NC(=O)[C@H](Cc2c[nH]cn2)NC(=O)[C@H](CCCNC(=N)N)NC1=O` (Ac-MCRHLFYWKLWHQRCGSGSEEGSGSDYKDDDDK-NH2; disulfide 2-15)?
Kd (FGF-R4 ECD): 0.002 µM; Kd (FGF-R1C ECD): > 10 µM; Kd (FGF-R3C ECD): > 10 µM

Which results are given for `CSCC[C@H](NC(C)=O)C(=O)N[C@H]1CSSC[C@@H](C(=O)NCC(=O)N[C@@H](CO)C(=O)NCC(=O)N[C@@H](CO)C(=O)N[C@@H](CC(=O)O)C(=O)N[C@@H](Cc2ccc(O)cc2)C(=O)N[C@@H](CCCCN)C(=O)N[C@@H](CC(=O)O)C(=O)N[C@@H](CC(=O)O)C(=O)N[C@@H](CC(=O)O)C(=O)N[C@@H](CC(=O)O)C(=O)N[C@@H](CCCCN)C(N)=O)NC(=O)[C@H](CCCCN)NC(=O)[C@H](CCCNC(=N)N)NC(=O)[C@H](Cc2c[nH]cn2)NC(=O)[C@H](C(C)C)NC(=O)[C@H](CC(C)C)NC(=O)[C@H](CCC(N)=O)NC(=O)[C@H](Cc2ccc(O)cc2)NC(=O)[C@H](Cc2ccc(O)cc2)NC(=O)[C@H](CCCCN)NC(=O)[C@H](C(C)C)NC(=O)[C@H](Cc2c[nH]c3ccccc23)NC(=O)[C@H](CCCNC(=N)N)NC1=O` (Ac-MCRWVKYYQLVHRKCGSGSDYKDDDDK-NH2; disulfide 2-15)?
Kd (FGF-R4 ECD): 0.001 µM; Kd (FGF-R1C ECD): > 10 µM; Kd (FGF-R3C ECD): > 10 µM

How did the Kd (FGF-R4 ECD) turn out when `CC[C@H](C)[C@@H]1NC(=O)[C@H](CO)NC(=O)[C@@H](NC(=O)[C@H](CCSC)NC(C)=O)CSSC[C@@H](C(=O)NCC(=O)N[C@@H](CO)C(=O)NCC(=O)N[C@@H](CO)C(=O)N[C@@H](CC(=O)O)C(=O)N[C@@H](Cc2ccc(O)cc2)C(=O)N[C@@H](CCCCN)C(=O)N[C@@H](CC(=O)O)C(=O)N[C@@H](CC(=O)O)C(=O)N[C@@H](CC(=O)O)C(=O)N[C@@H](CC(=O)O)C(=O)N[C@@H](CCCCN)C(N)=O)NC(=O)[C@H](CC(C)C)NC(=O)[C@@H]2CCCN2C(=O)[C@H](CCCCN)NC(=O)[C@H]([C@@H](C)O)NC(=O)[C@H]([C@@H](C)CC)NC(=O)[C@H](CCCCN)NC(=O)[C@H](Cc2ccc(O)cc2)NC(=O)[C@H](Cc2c[nH]c3ccccc23)NC(=O)[C@H](CC(C)C)NC1=O` (Ac-MCSILWYKITKPLCGSGSDYKDDDDK-NH2; disulfide 2-14) was run?
Its Kd is 0.013 µM.

What about the Kd (FGF-R1C ECD) of the same compound?
Its Kd is > 10 µM.

What about the Kd (FGF-R3C ECD) of the same compound?
The Kd was > 10 µM.
